From patent US10821115B2, “Compounds that inhibit Mcl-1 protein” (priority 2017, dated 2020)
Where two headings read alike, the source gives them in different places.

What was measured:
[1] = biological target: recombinant human Mcl-1 (residues 171-327) / Bim interaction (Homo sapiens (Human), UniProt Q07820); test: biochemical; format: binding; conditions: read-out: Mcl-1 HTRF IC50
[2] = system: human multiple myeloma cell line, OPM-2; test: Cell viability assay (OPM-2 10 FBS), CellTiter-Glo; format: cell-based
Outline: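 Cells were seeded at 3000 cells/well in RPMI 1640 with 10% FBS and exposed to serially diluted compounds for 16 h at 37 °C, 5% CO2.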

[3] = TR-FRET, Mcl-1(171-327) / biotin-Bim (51-76)
[4] = Homo sapiens, OPM-2, 16 h, read-out: OPM-2 10% FBS IC50 IP, OPM-2 cells, 10% FBS, 16 h, CellTiter-Glo
[5] = 0.1 nM Mcl-1(171-327), 0.05 nM biotin-Bim (51-76)
[6] = Homo sapiens, OPM-2, 16 h, read-out: OPM-2 10% FBS IC50 IP, OPM-2 cells, 10% FBS, 16 h incubation
[7] = read-out: OPM-2 10% FBS IC50 IP, OPM-2 cells, 10% FBS, 16 h, CellTiter-Glo

recombinant human Mcl-1 (residues 171-327) / Bim interaction, sequence (Q07820 171-327): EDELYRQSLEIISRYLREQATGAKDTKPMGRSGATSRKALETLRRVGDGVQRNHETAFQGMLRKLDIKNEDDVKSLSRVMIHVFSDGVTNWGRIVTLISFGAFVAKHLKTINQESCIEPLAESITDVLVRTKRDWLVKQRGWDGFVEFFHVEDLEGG

CO[C@@]1(C#CCCN2CCOCC2)/C=C/C[C@H](C)[C@@H](C)S(=O)(=O)NC(=O)c2ccc3c(c2)N(C[C@@H]2CC[C@H]21)C[C@@]1(CCCc2cc(Cl)ccc21)CO3 (single isomer, unassigned) [Example 100012]
IC50 [1, 3]: 0.275 nM
IC50 [2, 4]: 1130 nM

CO[C@]1(CN2CCN(C3COCCOC3)CC2)/C=C/C[C@H](C)[C@@H](C)S(=O)(=O)NC(=O)c2ccc3c(c2)N(C[C@@H]2CC[C@H]21)C[C@@]1(CCCc2cc(Cl)ccc21)CO3 [Example 342, (1S,3′R,6′R,7′R,8′E,11′S,12′R)-6-chloro-7′-((4-(1,4-piperazinyl)methyl)-7′-dioxepan-6-yl)-1-methoxy-11′,12′-dimethyl-3,4-dihydro-2H,15′H-spiro[naphthalene-1,22′-[20]oxa[13]thia[1,14]diazatetracyclo [14.7.2.0~3,6~.0~19,24~]pentacosa[8,16,18,24]tetraen]-15′-one 13′,13′-dioxide]
IC50 [1, 5]: 0.089 nM
IC50 [2, 6]: 104 nM

COCCC#C[C@]1(OC)/C=C/C[C@H](C)[C@@H](C)S(=O)(=O)NC(=O)c2ccc3c(c2)N(C[C@@H]2CC[C@H]21)C[C@@]1(CCCc2cc(Cl)ccc21)CO3 [Example 100423, (1S,3′R,6′R,7′S,8′E,11′S,12′R)-6-chloro-7′-methoxy-7′-(4-methoxy-1-butyn-1-yl)-11′,12′-dimethyl-3,4-dihydro-2H,15′H-spiro[naphthalene-1,22′-[20]oxa[13]thia[1,14]diazatetracyclo [14.7.2.0~3,6~.0~19,24~]pentacosa[8,16,18,24]tetraen]-15′-one 13′,13′-dioxide]
IC50 [1, 3]: 0.056 nM
IC50 [2, 4]: 99 nM

CO[C@@]1(CCOS(C)(=O)=O)/C=C/C[C@H](C)[C@@H](C)S(=O)(=O)NC(=O)c2ccc3c(c2)N(C[C@@H]2CC[C@H]21)C[C@@]1(CCCc2cc(Cl)ccc21)CO3 [Example 100364, 2-((1S,3′R,6′R,7′S,8′E,11′S,12′R)-6-chloro-7′-methoxy-11′,12′-dimethyl-13′,13′-dioxido-15′-oxo-3,4-dihydro-2H-spiro[naphthalene-1,22′-[20]oxa[13]thia[1,14]diazatetracyclo [14.7.2.0~3,6~.0~19,24~]pentacosa[8,16,18,24]tetraen]-7′-yl)ethyl methanesulfonate]
IC50 [1, 3]: 1.16 nM
IC50 [2, 4]: 1680 nM

CO[C@@]1(C[C@H](O)c2ccccn2)/C=C/C[C@H](C)[C@@H](C)S(=O)(=O)NC(=O)c2ccc3c(c2)N(C[C@@H]2CC[C@H]21)C[C@@]1(CCCc2cc(Cl)ccc21)CO3 (single isomer, unassigned) [Example 100489]
IC50 [1, 3]: 0.88 nM
IC50 [2, 7]: 182 nM

C[C@@H]1[C@@H](C)C/C=C/[C@@](O)([C@@H](C)C(=O)N(C)C)[C@@H]2CC[C@H]2CN2C[C@@]3(CCCc4cc(Cl)ccc43)COc3ccc(cc32)C(=O)NS1(=O)=O (single isomer, unassigned) [Example 100124]
IC50 [1, 3]: 0.323 nM
IC50 [2, 7]: 270 nM

COC(=O)C[C@@]1(O)/C=C/C[C@H](C)[C@@H](C)S(=O)(=O)NC(=O)c2ccc3c(c2)N(C[C@@H]2CC[C@H]21)C[C@@]1(CCCc2cc(Cl)ccc21)CO3 [Example 100287, methyl ((1S,3′R,6′R,7′R,8′E,11′S,12′R)-6-chloro-7′-hydroxy-11′,12′-dimethyl-13′,13′-dioxido-15′-oxo-3,4-dihydro-2H-spiro[naphthalene-1,22′-[20]oxa[13]thia[1,14]diazatetracyclo [14.7.2.0~3,6~.0~19,24~]pentacosa[8,16,18,24]tetraen]-7′-yl)acetate]
IC50 [1, 3]: 0.494 nM
IC50 [2, 4]: 1870 nM

C[C@@H]1[C@@H](C)C/C=C/[C@@](C)(O)[C@@H]2CC[C@H]2CN2C[C@@]3(CCCc4cc(Cl)ccc43)COc3ccc(nc32)C(=O)NS1(=O)=O (single isomer, unassigned) [Example 100601]
IC50 [1, 3]: 0.114 nM
IC50 [2, 4]: 239 nM

COCC[C@@H]1[C@@H](C)C/C=C/[C@@](CN2CCN(C3COC3)CC2)(OC)[C@@H]2CC[C@H]2CN2C[C@@]3(CCCc4cc(Cl)ccc43)COc3ccc(cc32)C(=O)NS1(=O)=O [Example 187, (1S,3′R,6′R,7′R,8′E,11′S,12′R)-6-chloro-7′-methoxy-12′-(2-methoxyethyl)-11′-methyl-7′-((4-(3-oxetanyl)-1-piperazinyl)methyl)-3,4-dihydro-2H,15′H-spiro[naphthalene-1,22′-[20]oxa[13]thia[1,14]diazatetracyclo [14.7.2.0~3,6~.0~19,24~]pentacosa[8,16,18,24]tetraen]-15′-one 13′,13′-dioxide]
IC50 [1, 5]: 0.066 nM
IC50 [2, 6]: 43 nM

C[C@@H]1[C@@H](C)C/C=C/[C@@](O)(c2ccc(F)nc2)[C@@H]2CC[C@H]2CN2C[C@@]3(CCCc4cc(Cl)ccc43)COc3ccc(cc32)C(=O)NS1(=O)=O (single isomer, unassigned) [Example 100530]
IC50 [1, 3]: 0.171 nM
IC50 [2, 7]: 448 nM

COCCN(C)C1=NO[C@@]2(CCC[C@H](C)[C@@H](C)S(=O)(=O)NC(=O)c3ccc4c(c3)N(C[C@@H]3CC[C@H]32)C[C@@]2(CCCc3cc(Cl)ccc32)CO4)C1 [Example 100155, (1S,3′R,6′R,7′S,11′S,12′R)-6-chloro-3″- ((2-methoxyethyl)(methyl)amino)-11′,12′-dimethyl-3,4-dihydro-2H,4″H,15′H-dispiro[naphthalene-1,22′-[20]oxa[13]thia[1,14]diazatetracyclo [14.7.2.0~3,6~.0~19,24~]pentacosa[16,18,24]triene-7′,5″-[1,2]oxazol]-15′-one 13′,13′-dioxide]
IC50 [1, 3]: 0.225 nM
IC50 [2, 4]: 332 nM

COCCN(C)C1CN(C[C@@]2(OC)/C=C/C[C@H](C)[C@@H](C)S(=O)(=O)NC(=O)c3ccc4c(c3)N(C[C@@H]3CC[C@H]32)C[C@@]2(CCCc3cc(Cl)ccc32)CO4)C1 [Example 94, (1S,3′R,6′R,7′R,8′E,11′S,12′R)-6-chloro-7′-methoxy-7′-((3-((2-methoxyethyl)(methyl)amino)-1-azetidinyl)methyl)-11′,12′-dimethyl-3,4-dihydro-2H,15′H-spiro[naphthalene-1,22′-[20]oxa[13]thia[1,14]diazatetracyclo [14.7.2.0~3,6~.0~19,24~]pentacosa[8,16,18,24]tetraen]-15′-one 13′,13′-dioxide]
IC50 [1, 5]: 0.191 nM
IC50 [2, 6]: 140 nM

C[C@@H]1[C@@H](C)CCC[C@@](O)(Cc2ccccn2)[C@@H]2CC[C@H]2CN2C[C@@]3(CCCc4cc(Cl)ccc43)COc3ccc(cc32)C(=O)NS1(=O)=O [Example 100105, (1S,3′R,6′R,7′R,11′S,12′R)-6-chloro-7′-hydroxy-11′,12′-dimethyl-7′-(2-pyridinylmethyl)-3,4-dihydro-2H,15′H-spiro[naphthalene-1,22′-[20]oxa[13]thia[1,14]diazatetracyclo [14.7.2.0~3,6~.0~19,24~]pentacosa[16,18,24]trien]-15′-one 13′,13′-dioxide]
IC50 [1, 3]: 5.93 nM
IC50 [2, 7]: 3660 nM

CC(C)O[C@]1(CN2CCN(C(C)C)[C@H](C)C2)/C=C/C[C@H](C)[C@@H](C)S(=O)(=O)NC(=O)c2ccc3c(c2)N(C[C@@H]2CC[C@H]21)C[C@@]1(CCCc2cc(Cl)ccc21)CO3 [Example 51]
IC50 [1, 5]: 0.072 nM
IC50 [2, 6]: 99 nM

CO[C@@]1([C@H](C)O)/C=C/C[C@H](C)[C@@H](C)S(=O)(=O)NC(=O)c2ccc3c(c2)N(C[C@@H]2CC[C@H]21)C[C@@]1(CCCc2cc(Cl)ccc21)CO3 (single isomer, unassigned) [Example 100486]
IC50 [1, 3]: 0.381 nM
IC50 [2, 4]: 102 nM

CO[C@]1(CN2C[C@@H](C)N(C)[C@@H](C)C2)/C=C/C[C@H](C)[C@@H](C)S(=O)(=O)NC(=O)c2ccc3c(c2)N(C[C@@H]2CC[C@H]21)C[C@@]1(CCCc2cc(Cl)ccc21)CO3 [Example 336, (1S,3′R,6′R,7′R,8′E,11′S,12′R)-6-chloro-7′-methoxy-11′,12′-dimethyl-7′-(((3R,5S)-3,4,5-trimethyl-1-piperazinyl)methyl)-3,4-dihydro-2H,15′H-spiro[naphthalene-1,22′-[20]oxa[13]thia[1,14]diazatetracyclo [14.7.2.0~3,6~.0~19,24~]pentacosa[8,16,18,24]tetraen]-15′-one 13′,13′-dioxide]
IC50 [1, 5]: 0.085 nM
IC50 [2, 6]: 51 nM

CO[C@@]1(CCN2CCCCC2)/C=C/C[C@H](C)[C@@H](C)S(=O)(=O)NC(=O)c2ccc3c(c2)N(C[C@@H]2CC[C@H]21)C[C@@]1(CCCc2cc(Cl)ccc21)CO3 [Example 100428, (1S,3′R,6′R,7′S,8′E,11′S,12′R)-6-chloro-7′-methoxy-11′,12′-dimethyl-7′-(2-(1-piperidinyl)ethyl)-3,4-dihydro-2H,15′H-spiro[naphthalene-1,22′-[20]oxa[13]thia[1,14]diazatetracyclo [14.7.2.0~3,6~.0~19,24~]pentacosa[8,16,18,24]tetraen]-15′-one 13′,13′-dioxide]
IC50 [1, 3]: 0.21 nM
IC50 [2, 4]: 218 nM

CO[C@]1(c2cnc(Cl)n2C)/C=C/C[C@H](C)[C@@H](C)S(=O)(=O)NC(=O)c2ccc3c(c2)N(C[C@@H]2CC[C@H]21)C[C@@]1(CCCc2cc(Cl)ccc21)CO3 (single isomer, unassigned) [Example 100539]
IC50 [1, 3]: 0.144 nM
IC50 [2, 4]: 727 nM

CC[C@]1(OC)/C=C/C[C@H](C)[C@@H](C)S(=O)(=O)NC(=O)c2ccc3c(c2)N(C[C@@H]2CC[C@H]21)C[C@@]1(CCCc2cc(Cl)ccc21)CO3 [Example 100234, (1S,3′R,6′R,7′S,8′E,11′S,12′R)-6-chloro-7′-ethyl-7′-methoxy-11′,12′-dimethyl-3,4-dihydro-2H,15′H-spiro[naphthalene-1,22′-[20]oxa[13]thia[1,14]diazatetracyclo [14.7.2.0~3,6~.0~19,24~]pentacosa[8,16,18,24]tetraen]-15′-one 13′,13′-dioxide]
IC50 [1, 3]: 0.237 nM
IC50 [2, 4]: 449 nM
